Measured values reported in PMC5591244, “Novel selective, potent naphthyl TRPM8 antagonists identified through a combined ligand- and structure-based virtual screening approach” (Scientific Reports, 2017).

How the values were obtained:
Assay type in all cases: cell-based
[1] = target: T1, TRPM8 (Homo sapiens, UniProt Q7Z2W7); assay: Calcium mobilization assay (HTS and dose-response) on HEK-293/hTRPM8 cells; details: for Max inhibition: HTS campaign, Cooling agent 10 30 μM, %inhibition values obtained at 10 mM (so in the source)
T1 construct: expressed in transfected cells
Experimental: All experiments were performed on HEK-293/hTRPM8 cells stably transfected with the human TRPM8 gene, except for site-directed mutagenesis analysis, which was performed on transient transfectants. In details, HEK-293 cells (ATCC, Manassas, Virginia) were transfected with the pcDNA3/hTRPM8 vector by electroporation (300 Volts, 950 µF) then selected with medium containing 0,8 mg/ml G418 for 10–15 days. Then the stable transfected pool underwent two rounds of limiting dilutions, in eight 96 well plates at a cell density of 1 cell/well, in order to obtain pure clones. The best responder clone was selected based on its response to 1 mM menthol in calcium mobilization experiments. HEK-293/hTRPM8 cells were maintained in EMEM (Minimum Essential Medium Eagle with Earl’s salts Balanced Salt Solution, LONZA) supplemented with 2 mM Ultraglutamine1 (Lonza), 1% Penicillin/Streptomycin (LONZA), 10% of Fetal Bovine Serum (Euroclone) and 0,4 mg/mL G418 (InvivoGen).
For calcium mobilization assays, cells were seeded at 10,000 cells/well in 384-well plates coated with poly-D-lysine (MATRIX black/clear bottom #4332-CPL, Thermo Scientific, Waltham, MA, USA) in complete medium.Twenty-four hours after seeding, the plates were washed with Tyrode’s buffer with a Bio-Tek-ELx405 Microplate Washer (Merck Millipore; Billerica, MA, USA), and then 10 µl/well of a solution containing the fluorescent Ca^2+ indicator Fluo-4 NW dye was added. Cells were incubated for 1 h at room temperature before test compounds were added at 3X the concentration with respect to the final wanted concentration to be tested with a FLIPR TETRA system (Molecular Devices, Sunnyvale, CA, USA). Calcium mobilization was monitored over a period of 5 min. A second injection of 10 µl/well of a reference agonist (icilin or Cooling agent 10) at 4X concentration in assay buffer was performed using the FLIPR TETRA system. Of note, for selectivity assays, the following agonists were used: 10 μM AITC (allyl isothiocyanate) for TRPA1; 100 nM Capsaicin for TRPV1; and 20 nM GSK1016790A for TRPV4.
After addition of the agonist, the fluorescence signal was recorded over the next 3 min. The bioactivity exerted by the compounds was expressed as a percentage of inhibition. The percentage scale is defined as follows: 100% inhibition was considered as the relative fluorescence units (RFUs) of the value of the MIN controls in the second injection (antagonist Capsazepine at IC100 = 50 µM) and 0% inhibition was considered as the RFU values of the value of the MAX controls in the second injection (Cooling agent 10 at EC80 = 30 µM). Data from four replicates were analyzed using GraphPad PRISM® software (version 5, GraphPad Software Inc.) to calculate the mean and standard error of the mean, to create sigmoidal concentration-response curves and to calculate IC50 values.

[2] = target: T2, TRPM8 Y745A (Homo sapiens, UniProt Q7Z2W7, Y745A); assay: Calcium mobilization on transiently transfected TRPM8 Y745A mutant; details: agonist calcium response
T2 construct: expressed in transfected cells; host or cells: HEK-293, transient (Lipofectamine 2000)
Source text: (§1) Single point mutations were introduced in the hTRPM8-coding sequence, and the mutated TRPM8 was cloned as N-terminal c-myc tagged version into the pcDNA3 expression vector. This was done in that way that the single variations could be easily swapped from the myc-tagged expression construct into the non-tagged TRPM8 wild type expression construct.
(§2) The list of the variants is the following: variant 1, t2233g, a2234c (=Y745A); variant 2, a2236g, t2237c (=I746A); variant 3, a2395g, a2396c (=N799A) and variant 4, a2405c (D802A). The cloning project comprised three steps. First of all, a unique XhoI restriction site was inserted by site-directed mutagenesis (SDM) using DNA of the pcDNA3_TRPM8 construct as template. The 0.6 kb DNA fragment between the unique 5′ XhoI (introduced) and 3′ BamHI (already present) restriction sites comprised all positions of the four single point mutations and could be later used for their insertion as well as swapping between myc-tagged and non-tagged TRPM8 versions. In a second step, the c-myc tag sequence was introduced embedded within the TRPM8 coding sequence by PCR primers in two partially overlapping PCRs that were then joined by bridge PCR with the external 5′KpnI and internal 3′EcoRI primers and in the last step the point mutations 1 to 4 were inserted into pcDNA3_c-myc-TRPM8 by exchanging the wild type 5′XhoI-3′BamHI fragment (0.6 kb) with each of the corresponding variation fragment derived from synthetic DNA (provided by GeneArt, ThermoFisher Scientific).The myc-tagged constructs were transiently transfected in HEK-293 cells with Lipofectamine 2000 (Invitrogen) according to the manufacturer’s protocol. The pcDNA vectors containing the wt myc-tagged TRPM8 gene and the empty pcDNA3 (mock) were separately transfected into HEK-293 cells as controls. […] The obtained data from at least four wells (as replicates) were analyzed with GraphPad PRISM® software (version 5, GraphPad Software Inc.) to calculate the mean and standard error of the mean[58], to create sigmoidal concentration-response curves and to calculate IC50 values.

[3] = target: T3, TRPM8 N799A (Homo sapiens, UniProt Q7Z2W7, N799A); assay: Calcium mobilization on transiently transfected TRPM8 N799A mutant; details: agonist calcium response, N799A
T3 construct: expressed in transfected cells; host or cells: HEK-293, transient (Lipofectamine 2000)
Source text: as §1
(§3) The list of the variants is the following: variant 1, t2233g, a2234c (=Y745A); variant 2, a2236g, t2237c (=I746A); variant 3, a2395g, a2396c (=N799A) and variant 4, a2405c (D802A). The cloning project comprised three steps. First of all, a unique XhoI restriction site was inserted by site-directed mutagenesis (SDM) using DNA of the pcDNA3_TRPM8 construct as template. The 0.6 kb DNA fragment between the unique 5′ XhoI (introduced) and 3′ BamHI (already present) restriction sites comprised all positions of the four single point mutations and could be later used for their insertion as well as swapping between myc-tagged and non-tagged TRPM8 versions. In a second step, the c-myc tag sequence was introduced embedded within the TRPM8 coding sequence by PCR primers in two partially overlapping PCRs that were then joined by bridge PCR with the external 5′KpnI and internal 3′EcoRI primers and in the last step the point mutations 1 to 4 were inserted into pcDNA3_c-myc-TRPM8 by exchanging the wild type 5′XhoI-3′BamHI fragment (0.6 kb) with each of the corresponding variation fragment derived from synthetic DNA (provided by GeneArt, ThermoFisher Scientific).The myc-tagged constructs were transiently transfected in HEK-293 cells with Lipofectamine 2000 (Invitrogen) according to the manufacturer’s protocol. The pcDNA vectors containing the wt myc-tagged TRPM8 gene and the empty pcDNA3 (mock) were separately transfected into HEK-293 cells as controls. Cells were transfected and seeded on the same day at 17,500 cells/well in poly-D-lysine-coated 384-well plates (MATRIX #4332-CPL). Twenty-four hours after seeding, the activity of transfected TRPM8 receptors was tested using the calcium mobilization assay as described above. The analysis was performed on the basis of ΔF/F° (normalized MAX-MIN), where ΔF is the MAX between time points 117 and 182 minus the MIN between time points TP114 and TP116, and F° is the basal signal at time point TP0. The obtained data from at least four wells (as replicates) were analyzed with GraphPad PRISM® software (version 5, GraphPad Software Inc.) to calculate the mean and standard error of the mean[58], to create sigmoidal concentration-response curves and to calculate IC50 values.

[4] = target: T4, TRPM8 I746A (Homo sapiens, UniProt Q7Z2W7, I746A); assay: Calcium mobilization on transiently transfected TRPM8 I746A mutant; details: agonist calcium response, I746A
T4 construct: expressed in transfected cells; host or cells: HEK-293, transient (Lipofectamine 2000)
Source text: as §1, §3

[5] = target: T5, wt TRPM8 (Homo sapiens, UniProt Q7Z2W7); assay: Calcium mobilization on HEK-293 cells transiently transfected with wt myc-tagged TRPM8; details: agonist calcium response, wt; read-out: pIC50 of the agonist (agonist dose response), wt TRPM8 (converted)
T5 construct: expressed in transfected cells; host or cells: HEK-293, transient (Lipofectamine 2000)
Source text: as §1
The list of the variants is the following: variant 1, t2233g, a2234c (=Y745A); variant 2, a2236g, t2237c (=I746A); variant 3, a2395g, a2396c (=N799A) and variant 4, a2405c (D802A). The cloning project comprised three steps. First of all, a unique XhoI restriction site was inserted by site-directed mutagenesis (SDM) using DNA of the pcDNA3_TRPM8 construct as template. The 0.6 kb DNA fragment between the unique 5′ XhoI (introduced) and 3′ BamHI (already present) restriction sites comprised all positions of the four single point mutations and could be later used for their insertion as well as swapping between myc-tagged and non-tagged TRPM8 versions. […] The obtained data from at least four wells (as replicates) were analyzed with GraphPad PRISM® software (version 5, GraphPad Software Inc.) to calculate the mean and standard error of the mean[58], to create sigmoidal concentration-response curves and to calculate IC50 values.

[6] = target: T6, TRPM8 D802A (Homo sapiens, UniProt Q7Z2W7, D802A); assay: Calcium mobilization on transiently transfected TRPM8 D802A mutant; details: agonist calcium response, D802A
T6 construct: expressed in transfected cells; host or cells: HEK-293, transient (Lipofectamine 2000)
Source text: as §1, §2

T2 sequence (Q7Z2W7 whole entry Y745A): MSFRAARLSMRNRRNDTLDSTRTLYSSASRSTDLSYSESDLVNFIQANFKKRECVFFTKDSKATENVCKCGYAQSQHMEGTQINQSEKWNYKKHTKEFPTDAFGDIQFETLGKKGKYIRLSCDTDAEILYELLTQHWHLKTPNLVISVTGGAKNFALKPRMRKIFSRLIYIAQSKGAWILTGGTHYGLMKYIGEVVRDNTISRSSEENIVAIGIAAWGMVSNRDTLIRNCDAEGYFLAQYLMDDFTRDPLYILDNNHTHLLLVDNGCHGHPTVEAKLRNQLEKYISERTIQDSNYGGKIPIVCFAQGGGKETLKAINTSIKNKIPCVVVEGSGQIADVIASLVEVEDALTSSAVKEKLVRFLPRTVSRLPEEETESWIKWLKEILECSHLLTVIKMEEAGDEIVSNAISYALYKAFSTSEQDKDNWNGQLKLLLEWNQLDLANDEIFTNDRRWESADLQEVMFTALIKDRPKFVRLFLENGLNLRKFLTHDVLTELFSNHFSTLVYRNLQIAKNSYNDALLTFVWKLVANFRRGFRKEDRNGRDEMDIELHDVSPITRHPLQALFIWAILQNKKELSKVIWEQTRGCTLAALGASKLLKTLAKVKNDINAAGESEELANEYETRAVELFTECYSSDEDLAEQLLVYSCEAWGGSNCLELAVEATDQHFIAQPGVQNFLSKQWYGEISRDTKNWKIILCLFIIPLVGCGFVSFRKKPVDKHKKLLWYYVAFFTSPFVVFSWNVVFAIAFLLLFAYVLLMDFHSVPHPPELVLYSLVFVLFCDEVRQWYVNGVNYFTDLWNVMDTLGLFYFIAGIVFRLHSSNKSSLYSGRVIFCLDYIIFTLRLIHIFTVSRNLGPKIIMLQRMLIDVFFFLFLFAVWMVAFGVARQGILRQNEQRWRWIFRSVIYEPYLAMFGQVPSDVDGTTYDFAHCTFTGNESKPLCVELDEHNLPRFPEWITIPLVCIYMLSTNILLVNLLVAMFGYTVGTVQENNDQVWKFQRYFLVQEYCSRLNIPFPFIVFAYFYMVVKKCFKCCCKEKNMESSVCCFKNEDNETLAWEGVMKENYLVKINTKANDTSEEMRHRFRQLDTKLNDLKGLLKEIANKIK
T3 sequence (Q7Z2W7 whole entry N799A): as the sequence (Q7Z2W7 whole entry Y745A) above, with A745Y, N799A counted along it
T4 sequence (Q7Z2W7 whole entry I746A): as the sequence (Q7Z2W7 whole entry Y745A) above, with A745Y, I746A counted along it
T1 sequence (Q7Z2W7 whole entry): as the sequence (Q7Z2W7 whole entry Y745A) above, with A745Y counted along it
T6 sequence (Q7Z2W7 whole entry D802A): as the sequence (Q7Z2W7 whole entry Y745A) above, with A745Y, D802A counted along it
T5 sequence (Q7Z2W7 whole entry): as the sequence (Q7Z2W7 whole entry Y745A) above, with A745Y counted along it

Compound	Max inhibition [1] [%]	Agonist activity on Y745A mutant (words) [2]	Agonist activity on N799A mutant (words) [3]	Agonist activity on I746A mutant (words) [4]	further results
Oc1cc2c(cc1O)CN(C(=S)NCCc1ccc(Cl)cc1)CCC2 [Capsazepine, reference compound]					IC100 ([1]; MIN control antagonist): 50 µM
O=C(NCOCc1ccc2ccccc2c1)c1cccnc1 [Compound 2]	7.92				
O=C(COc1ccc2ccccc2c1)NCc1cccnc1 [Compound 3]	0.00				
O=C(NCOCc1ccc2ccccc2c1)c1cncc(Br)c1 [Compound 4]	0.00				
CC1CCC(C(C)C)C(OCC(O)CO)C1 (stereo not drawn) [Cooling agent 10]		completely abolished the activation	did not affect either maximal TRPM8 activation or EC50	minimal residual activation	Agonist activity on I746A mutant (words) ([4]; listed as Cooling Agent 10): strongly reduced agonist activity; EC80 ([1]; MAX control agonist): 30000 nM
O=C1NC(c2cccc([N+](=O)[O-])c2)=CCN1c1ccccc1O [Icilin, icilin]		abrogated agonist activity	abrogated agonist activity	minimal residual activation	EC50 [5]: 251 nM; Agonist activity on Y745A mutant (words) ([2]; listed as icilin): completely abolished the activation; Agonist activity on N799A mutant (words) ([3]; listed as icilin): completely abolished TRPM8 activation; EC50 ([4]; read-out: pIC50 of the agonist (agonist dose response), I746A (converted)): 126 nM; Agonist activity on D802A mutant (words) [6]: abrogated agonist activity; Agonist activity on D802A mutant (words) ([6]; listed as icilin): completely abolished TRPM8 activation
